Results reported in patent US12433875B2, “(R)-4-(1-(6-(4-(trifluoromethyl)benzyl)-6-azaspiro[2.5]octane-5-carboxamido)-cyclopropyl) benzoic acid or its salt also in polymorphic form a for use in the prevention of heterotopic ossification” (ROTTAPHARM BIOTECH S.R.L., priority 2019, dated 2025).

What was measured:
[1] = system: Male Lewis rats (CIA model, heterotopic bone formation); assay: Collagen Induce Arthritis (CIA) in rats, histological scores; type: in vivo, rat
Text: Collagen Induce Arthritis (CIA) in rats is among the most common models used to mimic human arthritis and especially Rheumatoid Arthritis (RA). In general the joint response seen in this model is quite similar to that observed in human pathology, in terms of inflammation, bone erosion and cartilage damage. Nevertheless, this model differs from Rheumatoid Arthritis, since it is endowed with a consistent periosteal woven bone formation (immature bone) that is not a usual feature of human RA (maybe, less than 10% of patients have this type of bone reaction). On the contrary, this disordered apposition of new bone is the distinctive feature of heterotopic ossification. Therefore, this model was used to study the effect of the compound of the invention in Pathological heretopic osteogenesis.
Male Lewis rats were immunized by intradermal injection at the base of the tail with an emulsion containing 150 μg of bovine collagen type II (bCII) in complete Freund's adjuvant (CFA) or received an injection with incomplete Freund's adjuvant (sham group). Three weeks after the first immunisation, animals were boosted with the same procedure. Three days after booster injection, arthritis had developed in all animals but the sham group. The administration of the compound (1) Form A started at this time point and lasted for 14 days (once a day, unless otherwise indicated).
The paws were fixed in 10% neutral buffered formalin (Bio-Optica, Milan, Italy) and subsequently decalcified in EDTA for 4 weeks. Samples were dehydrated in an ethanol series and embedded in paraffin. At least three non-consecutive sections for each paw were blindly scored at the level of the tarsus, metatarsus and calcaneus for the following histological features of woven bone. Two independent pathologists performed histopathology on blinded slides. The data of right and left hind limbs were summed for each rat.
In FIG. 3 the dose-response curve for the compound of the invention is reported. the compound was administered once a day for 14 days on the site where the pathological bone formation was expected as induced in the CIA model in rats. The dose were 1 mg/Kg, 3 mg/kg and 10 mg/kg. The data were expressed as the median (boxed area), 95% interquartile range (whiskers), and individual data (symbols) of the histological scores for heterotopic bone formation (osteogenesis) given by two pathologists unaware of the treatment groups on a following scale: 0=absent; 1=mild/focal; 2=moderate/multifocal; 3=severe/multifocal to diffuse. Since arthritis was bilateral, the scores for each rat was the sum of the two leg scores. […] The compound reached the maximal activity at 10 mg/kg.
The data were expressed as the median histological scores for heterotopic bone formation (osteogenesis) as described for FIG. 3. […] As for osteogenesis, the data reported in this graph were the median (boxed area), 95% interquartile range (whiskers), and individual data (symbols) of the histological scores for synovial hyperplasia (oedema) given by two pathologists unaware of the treatment groups on a following scale: 0=normal: 1-2 layers of synovial lining cells, 1=mild: focal to multifocal 3-4 layers of synovial lining cells and/or mild proliferation of subsynovial tissue, 2=moderate: focal to mutlitfocal >4-6 layers of synovial lining cells and/or moderate proliferation of subsynovial tissue, 3=severe: multifocal to diffuse >6-8 layers of synovial lining cells and/or severe proliferation of subsynovial tissue. Since arthritis was bilateral, the scores for each rat is the sum of the two leg scores. This underline a preferential and surprising effect of (R)-4-(1-(6-(4-(trifluoromethyl)benzyl)-6-azaspiro[2.5]octane-5-carboxamido)cyclopropyl)benzoic acid on the heterotopic bone formation, […].
The free acid form has been assayed in the rat CIA model as already described for its sodium salt (Form A). […]

[2] = system: Male DBA/1 mice (CIA model); assay: CIA in mice, histology of heterotopic bone formation; type: in vivo; conditions: 60 mg/kg once daily for 10 days, FIG. 9
Method: CIA in mice is another very popular translational model to mimic human arthritis. […] Male DBA/1 mice were immunized by intradermal injection at the base of the tail with an emulsion of 200 μg of bCII in CFA containing 3 mg/ml Mycobacterium tuberculosis. Non-immunized mice served as the negative control of disease. Animals were monitored by visual inspection for appearance of peripheral edema. […] Upon onset, animals were recruited and randomized. Recruitment was given a cut-off at day 40. Upon recruitment, arthritis clinical score was assigned, and edema was measured via caliper. Mice were randomized into the following groups: vehicle, 30 mg/kg the form A of the sodium salt of (R)-4-(1-(6-(4-(trifluoromethyl)benzyl)-6-azaspiro[2.5]octane-5-carboxamido)cyclopropyl)benzoic acid, 60 mg/kg the form A of the sodium salt of (R)-4-(1-(6-(4-(trifluoromethyl)benzyl)-6-azaspiro[2.5]octane-5-carboxamido)cyclopropyl)benzoic acid and 60 mg/kg naproxen. Animals received the test drugs once daily for 10 days. Histology was performed as described for rats.

## C[C@@H]1CCN(C(=O)CC#N)C[C@@H]1N(C)c1ncnc2[nH]ccc12 [tofacitinib, reference compound]
[1]; tofacitinib 25 mg/kg b.i.d. (daily dose more than three times higher)
  effect in controlling osteogenesis relative to the free acid at 15 mg/kg QD: reached the same effect in controlling osteogenesis

## CS(=O)(=O)c1ccc(C2=C(c3ccccc3)C(=O)OC2)cc1 [rofecoxib, reference compound]
[1]; 15 mg/kg each, FIG. 6b
  control of the inflammatory response (edema; histological scores for synovial hyperplasia): equally effective

## COc1ccc2cc([C@H](C)C(=O)O)ccc2c1 [naproxen, reference compound]
[2]
  new heterotopic bone formation (histology): not able to significantly affect new heterotopic bone formation

## O=C(O)c1ccc(C2(NC(=O)[C@H]3CC4(CCN3Cc3ccc(C(F)(F)F)cc3)CC4)CC2)cc1 [free acid, (R)-4-(1-(6-(4-(trifluoromethyl)benzyl)-6-azaspiro[2.5]octane-5-carboxamido)cyclopropyl)benzoic acid]
[1]; free acid orally 15 mg/kg once a day vs tofacitinib 5 or 25 mg/kg b.i.d.
  potency in controlling osteogenesis compared with tofacitinib: superior
